Source: patent US9034398B2, “Traditional Chinese drug comprising Danshen extracts and Sanqi extracts and use thereof” (TASLY Pharmaceutical Group Co., LTD., priority 2009, dated 2015)

Tests used:
rat myocardial I/R model [1] = assay: Diameters of the venules of heart coronary vessels after myocardial I/R; format: in vivo; details: 5 mg/kg BW/h intravenous drip; entire observation; FIG. 1
Protocol: The rats were anesthetized by intramuscularly injecting 20 wt % urethane (1.25 g/kg) and fixed in the supine position. Neck skin was incised and anterior cervical muscles were separated to expose the trachea. Tracheal intubation was performed. Another end of the intubation was attached to a Small Animal Ventilator (ALC-V8, Shanghai Aoteshai Biology Science and Technology Limited Company, Shanghai, China) so as to carry out pressure breathing under the following conditions: a respiratory ratio of 1:1, a respiratory frequency of 75 times/min and a tidal volume of 12 mL/kg. The rectal temperature, measured with YSI REF 401 (Yellow Spring, Ohio, USA), was maintained at 37 37.5° C. by using a thermal blanket. […] Heart coronary vessel microcirculation had been recorded by a CD video recorder ([…], US). […] The diameter of the venules and RBC velocity under a same visual field were recorded before ischemia, 30 min after ischemia, 30 min after reperfusion and 60 min after reperfusion. Recordings were replayed at 25 frames·s^-1, diameters of the arterioles and the venules as well as RBC velocities were measured with Image-Pro Plus 5.0 software. RBC velocities in the rat's heart arterioles and venules were expressed as “mm/s”, and the diameters of the rat's heart arterioles and venules were expressed as “μm”.

rat myocardial I/R model [2] = assay: FITC-labeled plasma albumin leakage from the venules of heart coronary vessels; format: in vivo; details: 5 mg/kg BW/h intravenous drip, 60 min after reperfusion; for FITC-labeled albumin leakage from the venules of the coronary vessels (images): FIG. 3A; for inhibitory effect on FITC-labeled albumin leakage (ratio of fluorescence intensity outside to inside the venules): FIG. 3B
Protocol: The rats were anesthetized by intramuscularly injecting 20 wt % urethane (1.25 g/kg) and fixed in the supine position. Neck skin was incised and anterior cervical muscles were separated to expose the trachea. Tracheal intubation was performed. Another end of the intubation was attached to a Small Animal Ventilator (ALC-V8, Shanghai Aoteshai Biology Science and Technology Limited Company, Shanghai, China) so as to carry out pressure breathing under the following conditions: a respiratory ratio of 1:1, a respiratory frequency of 75 times/min and a tidal volume of 12 mL/kg. The rectal temperature, measured with YSI REF 401 (Yellow Spring, Ohio, USA), was maintained at 37 37.5° C. by using a thermal blanket. The chest was sterilized and opened at the intercostal space between 2nd 4th ribs near the left and right sternal border to expose the heart. The 3⁄8 curved needle threaded with 3-0 suture was used to pass through the site at 1 2 mm below the juncture of the pulmonary artery cone and the left atrial appendage. The suture was ligated. A polyethylene tubule was placed between the silk suture and myocardial tissue, the silk suture was […] to cause ischemia. Ligature was released 30 min later to establish an I/R model. Danshensu+I/R group (DLA+I/R group): a Danshensu aqueous solution (in normal saline, 1.25 mg/ml) was administrated at a dosage of 5 mg/kg BW/h by intravenous drip 20 min before the experiment and continued until the end of the entire experiment. Notoginsenoside R1+I/R group (R1+I/R group): a Notoginsenoside R1 aqueous solution (in normal saline, 1.25 mg/ml) was administrated at a dosage of 5 mg/kg BW/h by intravenous drip 20 min before the experiment and continued until the end of the entire experiment. Danshensu:R1(4:1)+I/R group (DR(4:1)+I/R group): an aqueous solution of Danshensu and Notoginsenoside R1 at a weight ratio of 4:1, dissolved in normal saline (1.25 mg/ml, namely, in the solution, the concentration of Danshensu is 1 mg/ml and the concentration of Notoginsenoside R1 is 0.25 mg/ml), was administrated at a dosage of 5 mg/kg BW/h (namely, in the total dosage, the dosage of Danshensu is 4 mg/kg BW/h and the dosage of Notoginsenoside R1 is 1 mg/kg BW/h) by intravenous drip 20 min before the experiment and continued until the end of the entire experiment. […] Under an upright fluorescence microscope (USS-301, Leica, US), fluorescence image of each group was recorded with SIT camera by using a light at 455 nm as an exciting light and a mercury lamp (100 W) as an emission source. FITC fluorescence intensities inside the venules and the adjacent extravascular interstitial substance were measured with Image-Pro Plus 5.0 software, respectively. […]

rat's liver = details: previous researches, cited from earlier work
[3] = test system: rat's mesenteric venule walls; details: prior researches; rat mesentery, I/R; cited from earlier work

| Compound | change in the diameters of the venules of the heart coronary vessels (rat myocardial I/R model [1]) | FITC-labeled albumin leakage from the venules of the coronary vessels (images) (rat myocardial I/R model [2]) | inhibitory effect on FITC-labeled albumin leakage (ratio of fluorescence intensity outside to inside the venules) (rat myocardial I/R model [2]) | leukocytes adhered to rat's liver caused by I/R (rat's liver) | microcirculation disorder of the liver (rat's liver; rat, I/R) | adhesion between leucocytes and venule walls [3] | expression of leucocytes adhesion molecules CD11b/CD18 [3] | leakage of plasma albumin [3] |
| --- | --- | --- | --- | --- | --- | --- | --- | --- |
| CC(C)=CCC[C@](C)(O[C@@H]1O[C@H](CO)[C@@H](O)[C@H](O)[C@H]1O)[C@H]1CC[C@]2(C)[C@@H]1[C@H](O)C[C@@H]1[C@@]3(C)CC[C@H](O)C(C)(C)[C@@H]3[C@@H](O[C@@H]3O[C@H](CO)[C@@H](O)[C@H](O)[C@H]3O[C@@H]3OC[C@@H](O)[C@H](O)[C@H]3O)C[C@]12C [Notoginsenoside R1] | no significant change | can also be observed | Significant inhibitory effect on FITC-labeled albumin leakage has not been observed | can reduce | can ameliorate |  |  |  |
| O=C(O)C(O)Cc1ccc(O)c(O)c1 (centres unmarked) [Danshensu, (3,4-dihydroxyphenyl)lactic acid] | no significant change | can also be observed | Significant inhibitory effect on FITC-labeled albumin leakage has not been observed |  |  | potential for inhibiting | potential for inhibiting | potential for inhibiting |
